In ChEMBL document CHEMBL1201861, “Genomics of Drug Sensitity in Cancer screening data, Wellcome Trust Sanger Institute”:

Legend:
Assay in all cases: cells
PC-3 = assay type: functional, cell-based; conditions: Homo sapiens
NCI-H226 = assay type: functional, cell-based, Homo sapiens; conditions: Homo sapiens, NCI-H226
COLO-800 = assay type: functional, cell-based, Homo sapiens; conditions: Homo sapiens, COLO-800
SW 962 = assay type: functional, cell-based, Homo sapiens; conditions: Homo sapiens, SW 962
MMAC-SF = assay type: functional, cell-based; conditions: Homo sapiens
NTERA-2-cl-D1 = assay type: functional, cell-based, Homo sapiens; conditions: Homo sapiens, NTERA-2-cl-D1
KM12 = assay type: functional, cell-based, Homo sapiens; conditions: Homo sapiens, KM12
COR-L88 = assay type: functional, cell-based, Homo sapiens; conditions: Homo sapiens, COR-L88
OVCAR-4 = assay type: functional, cell-based, Homo sapiens; conditions: Homo sapiens, OVCAR-4
NCI-N87 = assay type: functional, cell-based; conditions: Homo sapiens
KGN = assay type: functional, cell-based, Homo sapiens; conditions: Homo sapiens, KGN
J-RT3-T3-5 = assay type: functional, cell-based, Homo sapiens; conditions: Homo sapiens, J-RT3-T3-5
EW-18 = assay type: functional, cell-based, Homo sapiens; conditions: Homo sapiens, EW-18; read-out: IC50
A4-Fuk = assay type: functional, cell-based, Homo sapiens; conditions: Homo sapiens, A4-Fuk
no-11 = assay type: functional, cell-based, Homo sapiens; conditions: Homo sapiens
MS-1 = assay type: functional, cell-based, Homo sapiens; conditions: Homo sapiens, MS-1
D-502MG = assay type: functional, cell-based, Homo sapiens; conditions: Homo sapiens, D-502MG
RXF 393 = assay type: functional, cell-based, Homo sapiens; conditions: Homo sapiens, RXF 393
COLO-668 = assay type: functional, cell-based, Homo sapiens; conditions: Homo sapiens, COLO-668
SNB-75 = assay type: functional, cell-based, Homo sapiens; conditions: Homo sapiens, SNB-75
P31-FUJ = assay type: functional, cell-based, Homo sapiens; conditions: Homo sapiens, P31-FUJ
IST-SL1 = assay type: functional, cell-based, Homo sapiens; conditions: Homo sapiens, IST-SL1
GAK = assay type: functional, cell-based, Homo sapiens; conditions: Homo sapiens, GAK
KLE = assay type: functional, cell-based; conditions: Homo sapiens
MN-60 = assay type: functional, cell-based, Homo sapiens; conditions: Homo sapiens, MN-60
HCE-T = assay type: functional, cell-based, Homo sapiens; conditions: Homo sapiens, HCE-T
NB5 = assay type: functional, cell-based, Homo sapiens; conditions: Homo sapiens, NB5
U-266 = assay type: functional, cell-based, Homo sapiens; conditions: Homo sapiens, U-266
QIMR-WIL = assay type: functional, cell-based, Homo sapiens; conditions: Homo sapiens, QIMR-WIL
GI-1 = assay type: functional, cell-based, Homo sapiens; conditions: Homo sapiens, GI-1
GI-ME-N = assay type: functional, cell-based, Homo sapiens; conditions: Homo sapiens, GI-ME-N
OCUB-M = assay type: functional, cell-based; conditions: Homo sapiens
IA-LM = assay type: functional, cell-based; conditions: Homo sapiens
MZ7-mel = assay type: functional, cell-based, Homo sapiens; conditions: Homo sapiens, MZ7-mel
ETK-1 = assay type: functional, cell-based, Homo sapiens; conditions: Homo sapiens, ETK-1
KG-1 = assay type: functional, cell-based, Homo sapiens; conditions: Homo sapiens, KG-1
UACC-257 = assay type: functional, cell-based, Homo sapiens; conditions: Homo sapiens, UACC-257
CTV-1 = assay type: functional, cell-based, Homo sapiens; conditions: Homo sapiens, CTV-1
LXF-289 cell line = assay type: functional, cell-based; conditions: Homo sapiens
HCE-4 = assay type: functional, cell-based; conditions: Homo sapiens
HCC1187 = assay type: functional, cell-based, Homo sapiens; conditions: Homo sapiens, HCC1187
LB2518-MEL = assay type: functional, cell-based; conditions: Homo sapiens
OCI-AML2 = assay type: functional, cell-based, Homo sapiens; conditions: Homo sapiens, OCI-AML2
KURAMOCHI = assay type: functional, cell-based, Homo sapiens; conditions: Homo sapiens, KURAMOCHI
NCI-H1355 = assay type: functional, cell-based, Homo sapiens; conditions: Homo sapiens, NCI-H1355
KY821 = assay type: functional, cell-based, Homo sapiens; conditions: Homo sapiens, KY821
SNU-C2B = assay type: functional, cell-based; conditions: Homo sapiens
HDLM-2 = assay type: functional, cell-based, Homo sapiens; conditions: Homo sapiens, HDLM-2
KU812 cell line = assay type: functional, cell-based, Homo sapiens; conditions: Homo sapiens, KU812
Ramos-2G6-4C10 = assay type: functional, cell-based, Homo sapiens; conditions: Homo sapiens, Ramos-2G6-4C10
EM-2 = assay type: functional, cell-based, Homo sapiens; conditions: Homo sapiens, EM-2
SH-4 = assay type: functional, cell-based; conditions: Homo sapiens

## Cc1ccc(C(=O)Nc2ccc(CN3CCN(C)CC3)c(C(F)(F)F)c2)cc1C#Cc1cnc2cccnn12 [PONATINIB]
PC-3
  IC50: […]
NCI-H226
  IC50: […]
COLO-800
  IC50: […]
SW 962
  IC50: […]
MMAC-SF
  IC50: […]
NTERA-2-cl-D1
  IC50: […]
KM12
  IC50: 97.4 nM
COR-L88
  IC50: […]
OVCAR-4
  IC50: 416 nM
NCI-N87
  IC50: […]
KGN
  IC50: […]
J-RT3-T3-5
  IC50: […]
EW-18
  IC50: […]
A4-Fuk
  IC50: […]
no-11
  IC50: […]
MS-1
  IC50: […]
D-502MG
  IC50: […]
RXF 393
  IC50: […]
COLO-668
  IC50: […]
SNB-75
  IC50: […]
P31-FUJ
  IC50: […]
IST-SL1
  IC50: […]
GAK
  IC50: […]
KLE
  IC50: […]
MN-60
  IC50: […]
HCE-T
  IC50: […]
NB5
  IC50: […]
U-266
  IC50: […]
QIMR-WIL
  IC50: 334 nM
GI-1
  IC50: […]
GI-ME-N
  IC50: […]
OCUB-M
  IC50: […]
IA-LM
  IC50: […]
MZ7-mel
  IC50: […]
ETK-1
  IC50: […]
KG-1
  IC50: 32.9 nM
UACC-257
  IC50: […]
CTV-1
  IC50: 5.21 nM
LXF-289 cell line
  IC50: […]
HCE-4
  IC50: […]
HCC1187
  IC50: […]
LB2518-MEL
  IC50: […]
OCI-AML2
  IC50: […]
KURAMOCHI
  IC50: 284 nM
NCI-H1355
  IC50: […]
KY821
  IC50: […]
SNU-C2B
  IC50: […]
HDLM-2
  IC50: […]
KU812 cell line
  IC50: 28.5 nM
Ramos-2G6-4C10
  IC50: […]

## COc1cc(N2CCC(N3CCN(C)CC3)CC2)ccc1Nc1ncc(Cl)c(Nc2ccccc2S(=O)(=O)C(C)C)n1 [TAE-684]
NCI-H226
  IC50: […]
COLO-800
  IC50: 767 nM
SW 962
  IC50: 1560 nM
MMAC-SF
  IC50: […]
NTERA-2-cl-D1
  IC50: 334 nM
EM-2
  IC50: 1850 nM
KM12
  IC50: […]
COR-L88
  IC50: […]
OVCAR-4
  IC50: 406 nM
NCI-N87
  IC50: […]
KGN
  IC50: 662 nM
J-RT3-T3-5
  IC50: […]
EW-18
  IC50: […]
A4-Fuk
  IC50: 55.7 nM
no-11
  IC50: […]
MS-1
  IC50: […]
D-502MG
  IC50: […]
RXF 393
  IC50: 558 nM
COLO-668
  IC50: […]
SNB-75
  IC50: […]
P31-FUJ
  IC50: […]
IST-SL1
  IC50: […]
GAK
  IC50: […]
KLE
  IC50: […]
MN-60
  IC50: […]
HCE-T
  IC50: 1090 nM
NB5
  IC50: 1580 nM
U-266
  IC50: 1740 nM
QIMR-WIL
  IC50: […]
GI-1
  IC50: 1100 nM
GI-ME-N
  IC50: 1250 nM
OCUB-M
  IC50: 1360 nM
IA-LM
  IC50: […]
MZ7-mel
  IC50: […]
SH-4
  IC50: […]
ETK-1
  IC50: 1340 nM
KG-1
  IC50: 396 nM
UACC-257
  IC50: […]
CTV-1
  IC50: 556 nM
LXF-289 cell line
  IC50: 1030 nM
HCE-4
  IC50: 1610 nM
HCC1187
  IC50: 1860 nM
LB2518-MEL
  IC50: […]
OCI-AML2
  IC50: 483 nM
KURAMOCHI
  IC50: 1700 nM
NCI-H1355
  IC50: 552 nM
KY821
  IC50: […]
SNU-C2B
  IC50: […]
HDLM-2
  IC50: […]
KU812 cell line
  IC50: […]
Ramos-2G6-4C10
  IC50: […]
